Data: paper PMC9127750, “Structure-based design of CDC42 effector interaction inhibitors for the treatment of cancer” (Cell reports, 2022)
Where “and” joins values, the source holds several entries; their conditions need not be identical. Equal values may be shown once.

Tested on: WM3248 melanoma cells, 486 antibodies
Assay: Reverse phase protein arrays (RPPA)
Assay type: cell-based, Human
Conditions: 20 uM
Description: Pellets were snap frozen in liquid nitrogen and shipped to MD Anderson Cancer Center core RPPA facility for RPPA analysis (Table S5). Three biological replicates for each sample were generated.
Nomenclatures on the RPPA heatmaps: name_of_antibody.species_of_antibody.status_of_antibody. V - antibody validated; C - validation of antibody in progress; Q - antibody nonspecific; E – under evaluation; antibodies raised in M - mouse, G - goat, R - rabbit, or T - rat.

CN(C)c1cccc(Nc2cc(-c3ccccc3)nc(C3CCNCC3)n2)c1 [ARN22089, N1,N1-dimethyl-N3-(6-phenyl-2-(piperidin-4-yl)pyrimidin-4-yl)benzene-1,3-diamine]
RPPA SGK1.R.V Average (average of 3): 0.842 | RPPA SGK3.R.V Average (average of 3): 1.023 | RPPA SHP2.R.V Average (average of 3): 1.005 | RPPA SHP.2_pY542.R.C Average (average of 3): 1.076 | RPPA SIRPαR.V Average (average of 3): 0.981 | RPPA SLC1A5.R.C Average (average of 3): 1.080 | RPPA SOD1.M.V Average (average of 3): 0.967 | RPPA SOD2.R.V Average (average of 3): 1.111 | RPPA SOX7.R.V Average (average of 3): 1.078 | RPPA STING.R.V Average (average of 3): 0.964 | RPPA Shc_pY317.R.C Average (average of 3): 1.012 | RPPA Slfn11.G.C Average (average of 3): 0.995 | RPPA Smac.M.Q Average (average of 3): 0.977 | RPPA Smad1.R.V Average (average of 3): 1.081 | RPPA Smad3.R.V Average (average of 3): 1.101 | RPPA Smad4.R.V Average (average of 3): 1.112 | RPPA Snail.M.Q Average (average of 3): 0.754 | RPPA Sox2.R.V Average (average of 3): 1.223 | RPPA Sox17.R.V Average (average of 3): 0.982 | RPPA Src.M.V Average (average of 3): 0.962 | RPPA Src_pY416.R.V Average (average of 3): 1.034 | RPPA Src_pY527.R.V Average (average of 3): 1.187 | RPPA Stat3.R.C Average (average of 3): 0.979 | RPPA Stat3_pY705.R.C Average (average of 3): 1.281 | RPPA Stat5a.R.V Average (average of 3): 1.185 | RPPA Stathmin.1.R.V Average (average of 3): 0.924 | RPPA Syk.M.V Average (average of 3): 0.975 | RPPA TAZ.R.V Average (average of 3): 0.719 | RPPA TEAD.R.C Average (average of 3): 0.998 | RPPA TFAM.R.V Average (average of 3): 0.978 | RPPA TFRC.R.V Average (average of 3): 0.934 | RPPA TRAP1.M.V Average (average of 3): 0.944 | RPPA TRIM24.R.C Average (average of 3): 1.085 | RPPA TRIM25.R.C Average (average of 3): 0.893 | RPPA TRIP13.R.V Average (average of 3): 0.978 | RPPA Transglutaminase.M.V Average (average of 3): 1.323 | RPPA signal, antibody TSC1.R.C, Average (average of 3 replicates): 0.906 | RPPA signal, antibody TTF1.R.V, Average (average of 3 replicates): 1.016 | RPPA signal, antibody TUFM.R.V, Average (average of 3 replicates): 1.103 | RPPA signal, antibody Tuberin_pT1462.R.V, Average (average of 3 replicates): 1.116 | RPPA signal, antibody Twist.M.C, Average (average of 3 replicates): 0.954 | RPPA signal, antibody Tyro3.R.V, Average (average of 3 replicates): 1.154 | RPPA signal, antibody U.Histone.H2B.R.C, Average (average of 3 replicates): 2.471 | RPPA signal, antibody UBAC1.R.V, Average (average of 3 replicates): 1.016 | RPPA signal, antibody UGT1A.M.V, Average (average of 3 replicates): 1.000 | RPPA signal, antibody ULK1_pS757.R.C, Average (average of 3 replicates): 0.908 | RPPA signal, antibody UQCRC2.M.C, Average (average of 3 replicates): 0.887 | RPPA signal, antibody VASP.R.V, Average (average of 3 replicates): 0.952 | RPPA signal, antibody VAV1.R.C, Average (average of 3 replicates): 1.024 | RPPA signal, antibody VEGFR.2.R.V, Average (average of 3 replicates): 0.928 | RPPA signal, antibody VEGFR.2_pY1175.R.C, Average (average of 3 replicates): 1.063 | RPPA signal, antibody VHL.EPPK1.M.C, Average (average of 3 replicates): 1.020 | RPPA signal, antibody VHL.R.C, Average (average of 3 replicates): 0.956 | RPPA signal, antibody Vinculin.M.V, Average (average of 3 replicates): 0.913 | RPPA signal, antibody WIPI2.R.C, Average (average of 3 replicates): 1.142 | RPPA signal, antibody WTAP.R.V, Average (average of 3 replicates): 1.197 | RPPA signal, antibody Wee1.R.C, Average (average of 3 replicates): 1.011 | RPPA signal, antibody XBP.1.G.C, Average (average of 3 replicates): 0.972 | RPPA signal, antibody XIAP.R.C, Average (average of 3 replicates): 0.993 | RPPA signal, antibody XPA.M.V, Average (average of 3 replicates): 0.982 | RPPA signal, antibody XPF.R.C, Average (average of 3 replicates): 0.952 | RPPA signal, antibody XRCC1.R.C, Average (average of 3 replicates): 1.024 | RPPA signal, antibody YAP.R.C, Average (average of 3 replicates): 0.993 | RPPA signal, antibody YB1_pS102.R.V, Average (average of 3 replicates): 1.015 | RPPA signal, antibody YES1.R.V, Average (average of 3 replicates): 0.974 | RPPA signal, antibody YTHDF2.R.V, Average (average of 3 replicates): 1.022 | RPPA signal, antibody YTHDF3.R.C, Average (average of 3 replicates): 0.957 | RPPA signal, antibody ZAP.70.R.V, Average (average of 3 replicates): 0.929 | RPPA signal, antibody ZEB1.R.V, Average (average of 3 replicates): 1.026 | RPPA signal, antibody TSC1.R.C (individual replicates): 0.941 and 0.818 and 0.960 | RPPA signal, antibody TTF1.R.V (individual replicates): 1.015 and 0.923 and 1.110 | RPPA signal, antibody TUFM.R.V (individual replicates): 1.758 and 0.731 and 0.819 | RPPA signal, antibody Tuberin.R.V (individual replicates): 0.781 and 1.344 and 1.402 | RPPA signal, antibody Tuberin_pT1462.R.V (individual replicates): 0.961 and 1.362 and 1.023 | RPPA signal, antibody Twist.M.C (individual replicates): 0.937 and 0.987 | RPPA signal, antibody Tyro3.R.V (individual replicates): 1.400 and 1.084 and 0.979 | RPPA signal, antibody U.Histone.H2B.R.C (individual replicates): 5.570 and 0.775 | RPPA signal, antibody UBAC1.R.V (individual replicates): 1.007 and 0.954 | RPPA signal, antibody UBQLN4.M.C (individual replicates): 1.008 and 0.906 and 0.933 | RPPA signal, antibody UGT1A.M.V (individual replicates): 0.958 and 1.050 and 0.991 | RPPA signal, antibody ULK1_pS757.R.C (individual replicates): 0.848 and 1.011
